Assay results from paper PMC12325182, “Discovery of novel and potent celastrol derivatives as PRDX1 inhibitors for cancer therapy through structure-based virtual screening” (Frontiers in Pharmacology, 2025).

Tests used:
Assay in all cases: Kinase selectivity assay
Assay type in all cases: biochemical
ABL1 = biological target: T1, ABL1 (Homo sapiens, UniProt P00519); details: target ABL1; read-out: CP1 IC50
T1 construct: ICE Biosciences (Beijing, China), ran the assays
Experimental: (§1) The selectivity of CP1 for PRDX1 was evaluated through kinase selectivity assays against other PRDX family members and a panel of kinases. The experiments were conducted by ICE Biosciences (Beijing, China).

AXL = biological target: T2, AXL (Homo sapiens, UniProt P30530); details: target AXL; read-out: CP1 IC50
T2 construct: ICE Biosciences (Beijing, China), ran the assays
Experimental: as §1

BLK = biological target: T3, BLK (Homo sapiens, UniProt P51451); details: target BLK; read-out: CP1 IC50
T3 construct: ICE Biosciences (Beijing, China), ran the assays
Experimental: as §1

BMX = biological target: T4, BMX (Homo sapiens, UniProt P51813); details: target BMX; read-out: CP1 IC50
T4 construct: ICE Biosciences (Beijing, China), ran the assays
Experimental: as §1

BTK = biological target: T5, BTK (Homo sapiens, UniProt Q06187); details: target BTK; read-out: CP1 IC50
T5 construct: ICE Biosciences (Beijing, China), ran the assays
Experimental: as §1

DDR1 = biological target: T6, DDR1 (Homo sapiens, UniProt Q08345); details: target DDR1; read-out: CP1 IC50
T6 construct: ICE Biosciences (Beijing, China), ran the assays
Experimental: as §1

EPHA1 = biological target: T7, EPHA1 (Homo sapiens, UniProt P21709); details: target EPHA1; read-out: CP1 IC50
T7 construct: ICE Biosciences (Beijing, China), ran the assays
Experimental: as §1

EPHA8 = EPHA8 (Homo sapiens, UniProt P29322); details: target EPHA8; read-out: CP1 IC50
Experimental: as §1

EPHB1 = EPHB1 (Homo sapiens, UniProt P54762)
Experimental: as §1

ERBB2 = ERBB2 (Homo sapiens, UniProt P04626); details: target ERBB2; read-out: CP1 IC50
Experimental: as §1

ERBB4 = ERBB4 (Homo sapiens, UniProt Q15303); details: target ERBB4; read-out: CP1 IC50
Experimental: as §1

FER = FER (Homo sapiens, UniProt P16591); details: target FER; read-out: CP1 IC50
Experimental: as §1

FGR = biological target: T8, FGR (Homo sapiens, UniProt P09769); details: target FGR; read-out: CP1 IC50
T8 construct: assay run by ICE Biosciences (Beijing, China)
Experimental: as §1

FLT4 = biological target: T9, FLT4 (Homo sapiens, UniProt P35916); details: target FLT4; read-out: CP1 IC50
T9 construct: assay run by ICE Biosciences (Beijing, China)
Experimental: as §1

FRK = biological target: T10, FRK (Homo sapiens, UniProt P42685); details: target FRK; read-out: CP1 IC50
T10 construct: assay run by ICE Biosciences (Beijing, China)
Experimental: as §1

FYN = biological target: T11, FYN (Homo sapiens, UniProt P06241); details: target FYN; read-out: CP1 IC50
T11 construct: assay run by ICE Biosciences (Beijing, China)
Experimental: as §1

HCK = biological target: T12, HCK (Homo sapiens, UniProt P08631); details: target HCK; read-out: CP1 IC50
T12 construct: ICE Biosciences (Beijing, China), ran the assays
Experimental: as §1

ITK = ITK (Homo sapiens, UniProt Q08881); details: target ITK; read-out: CP1 IC50
Experimental: as §1

JAK2 = JAK2 (Homo sapiens, UniProt O60674); details: target JAK2; read-out: CP1 IC50
Experimental: as §1

MERTK = MERTK (Homo sapiens, UniProt Q12866); details: target MERTK; read-out: CP1 IC50
Experimental: as §1

MST1R = MST1R (Homo sapiens, UniProt Q04912); details: target MST1R; read-out: CP1 IC50
Experimental: as §1

NTRK2 = NTRK2 (Homo sapiens, UniProt Q16620)
Experimental: as §1

PDGFRB = biological target: T13, PDGFRB (Homo sapiens, UniProt P09619); details: target PDGFRB; read-out: CP1 IC50
T13 construct: assay run by ICE Biosciences (Beijing, China)
Experimental: as §1

PRDX2 = biological target: T14, PRDX2 (Homo sapiens, UniProt P32119); details: target PRDX2; read-out: CP1 IC50
T14 construct: ICE Biosciences (Beijing, China), ran the assays
Experimental: as §1

PRDX3 = biological target: T15, PRDX3 (Homo sapiens, UniProt P30048); details: target PRDX3; read-out: CP1 IC50
T15 construct: ICE Biosciences (Beijing, China), ran the assays
Experimental: as §1

PRDX4 = biological target: T16, PRDX4 (Homo sapiens, UniProt Q13162); details: target PRDX4; read-out: CP1 IC50
T16 construct: ICE Biosciences (Beijing, China), ran the assays
Experimental: as §1

PTK6 = biological target: T17, PTK6 (Homo sapiens, UniProt Q13882); details: target PTK6; read-out: CP1 IC50
T17 construct: assay run by ICE Biosciences (Beijing, China)
Experimental: as §1

RET = biological target: T18, RET (Homo sapiens, UniProt P07949); details: target RET; read-out: CP1 IC50
T18 construct: assay run by ICE Biosciences (Beijing, China)
Experimental: as §1

ROS1 = biological target: T19, ROS1 (Homo sapiens, UniProt P08922); details: target ROS1; read-out: CP1 IC50
T19 construct: assay run by ICE Biosciences (Beijing, China)
Experimental: as §1

SRC = biological target: T20, SRC (Homo sapiens, UniProt P12931); details: target SRC; read-out: CP1 IC50
T20 construct: assay run by ICE Biosciences (Beijing, China)
Experimental: as §1

SRMS = biological target: T21, SRMS (Homo sapiens, UniProt Q9H3Y6); details: target SRMS; read-out: CP1 IC50
T21 construct: assay run by ICE Biosciences (Beijing, China)
Experimental: as §1

TXK = biological target: T22, TXK (Homo sapiens, UniProt P42681); details: target TXK; read-out: CP1 IC50
T22 construct: ICE Biosciences (Beijing, China), a contract laboratory that ran the assay
Experimental: as §1

TYK2 = biological target: T23, TYK2 (Homo sapiens, UniProt P29597); details: target TYK2; read-out: CP1 IC50
T23 construct: ICE Biosciences (Beijing, China), a contract laboratory that ran the assay
Experimental: as §1

TYRO3 = biological target: T24, TYRO3 (Homo sapiens, UniProt Q06418); details: target TYRO3; read-out: CP1 IC50
T24 construct: ICE Biosciences (Beijing, China), a contract laboratory that ran the assay
Experimental: as §1

Measured: IC50

T11 sequence (P06241 whole entry): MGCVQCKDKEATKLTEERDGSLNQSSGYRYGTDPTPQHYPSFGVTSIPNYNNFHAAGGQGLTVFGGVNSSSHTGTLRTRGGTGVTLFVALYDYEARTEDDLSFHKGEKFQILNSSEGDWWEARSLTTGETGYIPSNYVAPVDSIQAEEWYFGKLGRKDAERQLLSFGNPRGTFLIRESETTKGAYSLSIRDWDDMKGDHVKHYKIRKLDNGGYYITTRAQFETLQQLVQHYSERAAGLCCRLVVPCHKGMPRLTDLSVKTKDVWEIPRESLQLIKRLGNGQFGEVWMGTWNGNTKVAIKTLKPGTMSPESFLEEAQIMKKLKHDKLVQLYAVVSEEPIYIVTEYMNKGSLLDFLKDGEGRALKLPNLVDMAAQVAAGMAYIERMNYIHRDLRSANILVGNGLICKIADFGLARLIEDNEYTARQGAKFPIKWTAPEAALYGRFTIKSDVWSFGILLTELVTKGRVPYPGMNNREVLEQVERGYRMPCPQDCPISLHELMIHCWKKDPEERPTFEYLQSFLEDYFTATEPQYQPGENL
Chain of ERBB4 (Q15303 26-1308): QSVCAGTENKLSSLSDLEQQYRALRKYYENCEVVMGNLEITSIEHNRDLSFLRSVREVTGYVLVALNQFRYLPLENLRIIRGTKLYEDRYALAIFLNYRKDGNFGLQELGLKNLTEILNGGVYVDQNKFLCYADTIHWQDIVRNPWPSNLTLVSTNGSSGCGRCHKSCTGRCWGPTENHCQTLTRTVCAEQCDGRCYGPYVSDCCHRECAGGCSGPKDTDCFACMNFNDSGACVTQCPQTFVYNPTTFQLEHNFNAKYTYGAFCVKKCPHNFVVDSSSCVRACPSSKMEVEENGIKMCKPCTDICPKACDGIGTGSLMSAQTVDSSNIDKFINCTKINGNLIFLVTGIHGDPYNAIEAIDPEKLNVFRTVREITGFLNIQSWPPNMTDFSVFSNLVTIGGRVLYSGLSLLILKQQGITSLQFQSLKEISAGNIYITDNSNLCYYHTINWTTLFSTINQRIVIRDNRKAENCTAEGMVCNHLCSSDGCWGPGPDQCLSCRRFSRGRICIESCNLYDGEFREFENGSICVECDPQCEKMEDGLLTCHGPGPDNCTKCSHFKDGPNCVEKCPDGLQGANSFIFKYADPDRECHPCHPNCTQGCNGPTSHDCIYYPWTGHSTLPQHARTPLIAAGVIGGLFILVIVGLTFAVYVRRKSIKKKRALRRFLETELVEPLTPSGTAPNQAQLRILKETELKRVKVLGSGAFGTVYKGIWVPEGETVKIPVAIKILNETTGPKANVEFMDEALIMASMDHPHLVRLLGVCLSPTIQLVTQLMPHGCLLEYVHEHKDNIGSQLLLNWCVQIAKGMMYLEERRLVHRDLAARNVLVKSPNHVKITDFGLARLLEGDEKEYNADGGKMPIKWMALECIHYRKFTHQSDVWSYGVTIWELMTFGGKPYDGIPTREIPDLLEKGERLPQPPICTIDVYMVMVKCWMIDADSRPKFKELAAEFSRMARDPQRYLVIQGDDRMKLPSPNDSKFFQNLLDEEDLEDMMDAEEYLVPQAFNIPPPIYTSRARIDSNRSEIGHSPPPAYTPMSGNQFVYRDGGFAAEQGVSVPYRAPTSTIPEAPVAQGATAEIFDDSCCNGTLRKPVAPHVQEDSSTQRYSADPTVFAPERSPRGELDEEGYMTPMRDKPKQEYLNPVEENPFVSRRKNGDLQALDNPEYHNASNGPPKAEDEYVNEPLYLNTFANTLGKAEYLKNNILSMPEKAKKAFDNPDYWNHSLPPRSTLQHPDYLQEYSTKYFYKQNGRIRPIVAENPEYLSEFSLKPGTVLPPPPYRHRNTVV
T21 sequence (Q9H3Y6 whole entry): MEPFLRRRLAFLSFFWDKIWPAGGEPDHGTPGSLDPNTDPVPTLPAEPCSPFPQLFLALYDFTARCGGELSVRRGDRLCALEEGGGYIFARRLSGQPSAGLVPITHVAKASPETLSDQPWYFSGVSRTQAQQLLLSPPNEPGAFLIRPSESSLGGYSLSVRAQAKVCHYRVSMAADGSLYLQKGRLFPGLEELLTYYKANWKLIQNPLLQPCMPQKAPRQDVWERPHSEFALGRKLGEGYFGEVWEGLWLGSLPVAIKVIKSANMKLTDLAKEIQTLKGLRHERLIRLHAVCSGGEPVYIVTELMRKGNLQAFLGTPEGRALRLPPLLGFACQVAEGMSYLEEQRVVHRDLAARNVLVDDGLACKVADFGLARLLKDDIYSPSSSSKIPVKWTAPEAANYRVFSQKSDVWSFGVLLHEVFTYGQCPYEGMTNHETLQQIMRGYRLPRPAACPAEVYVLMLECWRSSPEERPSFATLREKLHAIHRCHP
T20 sequence (P12931 whole entry): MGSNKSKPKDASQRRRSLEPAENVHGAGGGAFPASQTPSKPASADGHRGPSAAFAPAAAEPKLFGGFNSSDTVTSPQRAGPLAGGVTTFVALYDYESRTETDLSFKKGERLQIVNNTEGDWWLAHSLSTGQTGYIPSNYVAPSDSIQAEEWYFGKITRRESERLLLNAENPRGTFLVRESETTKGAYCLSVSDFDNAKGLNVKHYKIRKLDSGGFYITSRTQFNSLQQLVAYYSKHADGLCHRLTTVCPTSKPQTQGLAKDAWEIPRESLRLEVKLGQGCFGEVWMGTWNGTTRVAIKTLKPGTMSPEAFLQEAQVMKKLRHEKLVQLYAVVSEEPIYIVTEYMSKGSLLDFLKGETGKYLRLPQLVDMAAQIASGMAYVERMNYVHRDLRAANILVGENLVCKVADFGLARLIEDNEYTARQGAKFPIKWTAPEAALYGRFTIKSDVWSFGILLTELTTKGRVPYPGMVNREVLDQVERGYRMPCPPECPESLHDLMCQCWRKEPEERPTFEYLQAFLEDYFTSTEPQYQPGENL
T24 sequence (Q06418 41-890, species assumed): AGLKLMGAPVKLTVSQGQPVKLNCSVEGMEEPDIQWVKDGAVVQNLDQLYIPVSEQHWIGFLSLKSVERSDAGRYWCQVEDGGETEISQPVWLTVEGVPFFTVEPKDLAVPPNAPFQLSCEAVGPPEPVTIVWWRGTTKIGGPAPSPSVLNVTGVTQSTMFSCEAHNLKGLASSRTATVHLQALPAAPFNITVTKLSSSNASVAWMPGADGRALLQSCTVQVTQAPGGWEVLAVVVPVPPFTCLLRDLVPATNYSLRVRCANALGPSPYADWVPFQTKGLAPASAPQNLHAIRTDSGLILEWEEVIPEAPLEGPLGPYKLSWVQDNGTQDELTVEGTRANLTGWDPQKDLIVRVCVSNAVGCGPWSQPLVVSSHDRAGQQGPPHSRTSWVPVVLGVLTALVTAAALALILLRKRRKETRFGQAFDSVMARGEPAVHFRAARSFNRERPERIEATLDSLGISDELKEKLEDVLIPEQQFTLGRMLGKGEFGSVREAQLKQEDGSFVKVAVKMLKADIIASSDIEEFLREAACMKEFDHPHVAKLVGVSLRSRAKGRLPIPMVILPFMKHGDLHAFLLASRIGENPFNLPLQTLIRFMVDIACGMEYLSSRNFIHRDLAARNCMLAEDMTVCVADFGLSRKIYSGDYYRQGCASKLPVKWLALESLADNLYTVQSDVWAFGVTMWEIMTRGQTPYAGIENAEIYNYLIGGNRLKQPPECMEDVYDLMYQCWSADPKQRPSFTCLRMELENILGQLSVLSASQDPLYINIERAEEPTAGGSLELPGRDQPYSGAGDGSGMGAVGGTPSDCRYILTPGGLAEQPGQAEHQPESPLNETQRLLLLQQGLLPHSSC
Chain of EPHB1 (P54762 18-984): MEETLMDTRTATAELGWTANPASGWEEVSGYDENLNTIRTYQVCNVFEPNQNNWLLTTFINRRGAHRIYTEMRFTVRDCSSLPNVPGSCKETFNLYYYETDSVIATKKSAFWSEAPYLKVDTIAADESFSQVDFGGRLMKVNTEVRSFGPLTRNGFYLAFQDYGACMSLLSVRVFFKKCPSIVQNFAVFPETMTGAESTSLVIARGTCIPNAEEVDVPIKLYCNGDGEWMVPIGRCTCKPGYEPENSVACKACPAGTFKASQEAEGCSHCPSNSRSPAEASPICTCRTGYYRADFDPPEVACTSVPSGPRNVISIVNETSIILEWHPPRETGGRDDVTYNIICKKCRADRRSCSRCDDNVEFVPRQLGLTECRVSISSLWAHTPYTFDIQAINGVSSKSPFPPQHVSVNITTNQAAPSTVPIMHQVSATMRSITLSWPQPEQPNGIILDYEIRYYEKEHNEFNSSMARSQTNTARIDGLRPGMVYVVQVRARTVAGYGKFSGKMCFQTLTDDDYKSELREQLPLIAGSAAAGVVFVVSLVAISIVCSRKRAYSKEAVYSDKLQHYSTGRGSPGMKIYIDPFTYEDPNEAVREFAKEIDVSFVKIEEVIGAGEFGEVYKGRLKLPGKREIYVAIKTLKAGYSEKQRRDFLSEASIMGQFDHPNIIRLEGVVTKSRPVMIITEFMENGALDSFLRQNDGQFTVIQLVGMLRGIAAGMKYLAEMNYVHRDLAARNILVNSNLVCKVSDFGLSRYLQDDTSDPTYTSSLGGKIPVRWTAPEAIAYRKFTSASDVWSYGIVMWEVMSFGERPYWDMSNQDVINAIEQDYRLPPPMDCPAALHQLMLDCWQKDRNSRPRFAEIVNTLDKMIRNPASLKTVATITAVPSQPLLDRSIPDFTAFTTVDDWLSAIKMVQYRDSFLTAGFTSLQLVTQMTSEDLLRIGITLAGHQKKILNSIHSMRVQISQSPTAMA
T16 sequence (Q13162 38-271): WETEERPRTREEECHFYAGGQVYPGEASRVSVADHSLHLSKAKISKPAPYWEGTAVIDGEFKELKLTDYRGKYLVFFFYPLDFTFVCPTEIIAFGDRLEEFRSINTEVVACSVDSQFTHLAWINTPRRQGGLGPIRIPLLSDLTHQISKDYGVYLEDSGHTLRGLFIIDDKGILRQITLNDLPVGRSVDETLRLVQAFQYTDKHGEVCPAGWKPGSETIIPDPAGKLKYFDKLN

CC1=C(CC(=O)/C=C/c2cccc(CO)c2)C(=O)C=C2C1=CC=C1[C@@]2(C)CC[C@@]2(C)C3C[C@](C)(C(=O)CCc4nc(C(O)C(O)O)c(C)nc4C)CC[C@]3(C)CC[C@]12C (stereo partly shown) [CP1]
> 30 µM: ABL1 | AXL | BLK | BMX | BTK | DDR1 | EPHA1 | EPHA8 | EPHB1 | ERBB2 | ERBB4 | FER | FGR | FLT4 | FRK | FYN | HCK | ITK | JAK2 | MERTK | MST1R | NTRK2 | PDGFRB | PRDX2 | PRDX3 | PRDX4 | PTK6 | RET | ROS1 | SRC | SRMS | TXK | TYK2 | TYRO3
